Measurements taken from US20230059009A1, “INHIBITORS OF LIN28 AND METHODS OF USE THEREOF” (The Regents of the University of California, priority 2019, published 2023).
Entries after “also recorded” stand apart in the source; their conditions may differ.

How the values were obtained:
[1] = target: T1, LIN28B/pre-let-7a-2 binding (Homo sapiens, UniProt Q6ZN17); assay: FRET assay, EGFP-tagged LIN28B and BHQ-1 labelled pre-let-7a-2; conditions: doses 1.25 uM-20 uM; compared with LN1632
T1 construct: made in house; host or cells: stably transduced HEK cells; used as diluted protein lysate, not purified
T1 sequence (Q6ZN17 1-250): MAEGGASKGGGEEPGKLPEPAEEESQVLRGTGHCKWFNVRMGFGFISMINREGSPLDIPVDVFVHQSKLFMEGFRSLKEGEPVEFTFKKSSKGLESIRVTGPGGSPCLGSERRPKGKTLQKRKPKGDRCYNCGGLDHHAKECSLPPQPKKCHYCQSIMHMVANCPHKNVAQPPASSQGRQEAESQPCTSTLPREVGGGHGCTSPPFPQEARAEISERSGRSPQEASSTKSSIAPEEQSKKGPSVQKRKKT
Procedure: As described herein, compounds of formula (I) and (II) show Lin28/let-7 inhibitory activity in FRET assays in vitro and in LSCs and LSC-like Kasumi-1 cells. FRET assay was performed as previously described (51).
In order to improve binding and inhibitory capacity of a compound to LIN28b, we predicted the binding mode of LN1632 to LIN28B. […] With this model in hand, we synthesized novel compounds with improved binding capacity to Lin28b (JGJ002-JGJ008, FIG. 8). Compounds were screened using a previously described FRET-assay with an EGFP-tagged LIN28B as donor and a BHQ-1 quencher labelled pre-let-7a-2 (pre-let-7a-2-BHQ1) as acceptor (51). Briefly, recombinant LIN28B-EGFP was harvested from stably transduced HEK cells and diluted with binding buffer (300 mM NaCl, 25 mM HEPES pH 7.2, 10 μM ZnCl2, 1% Odyssey Blocking Buffer, 0.05% Tween 20, 0.5 mM TCEP) in order to adjust ideal FRET-quenching signal intensity. Protein lysate and compounds (JGJ001-JGJ008) were pre-incubated in doses ranging from 1.25 uM-20 uM for 20 min in 100 uL diluted protein lysate. Subsequently pre-let-7a-2-BHQ1 was added to the mixture (at 6.25 nM) and EGFP-LIN28B donor emission was measured using a Tecan Spark Plate Reader ([…], excitation at 488 nm, emission read-out at […], 30 flashes/s). […] Increased endogenous let-7 miRNA levels can target a panoply of LCS and cancer stem cell hallmark genes thus inhibiting tumor growth.
To test the structure-activity relationship, 39 LN1632-related analogs (JGJ001-39) were synthesized and their potency and specificity to inhibit LIN28B-RNA binding activity and upregulate mature let-7 miRNA levels was measured. […] The dual luciferase reporter assay was performed as previously described (89).

[2] = system: SW620; assay: Cell viability, CTG, SW620; type: cell-based; conditions: SW620 (Colon)
Procedure: To measure cell viability, cell titer glow (CTG, Promega CellTiter-Glo 2.0 Assay) and MTT assays (SigmaAldrich, Cell Proliferation Kit I) were performed. Briefly, cells were serum starved overnight prior to seeding in 96-well plates. Following 24 h incubation, cells were treated with increasing concentrations of JGJ compounds for 96 hr. At assay read-out, CellTiter-Glo reagent was added and luminescence was measured after 10-minutes incubation at room temperature. For the MTT assay, MTT labeling reagent was added and incubated for 4 h. Subsequently, medium was removed and 50 μL DMSO was added to solubilize the crystals, and absorbance was measured at 570 nm. Cell viability was calculated as (Sample-Background)/(Control-Background). Current standard of care drugs, Enzalutamide, Palbociclib and Cetuximab were used as comparative controls.

[3] = system: LSCs; assay: Colony forming capacity (CFC) of iMLL-AF9 LT-HSC derived LSCs; type: cell-based, mouse; conditions: 200 nM Ara-C or 30 μM 1632, 48 h
From the text: In addition, Lin28 was independently found to be a key driver in MLL-associated leukemias (56). In order to further characterize the role of Lin28/let-7 in regulating AML, LSC proliferation and therapy resistance in vivo, we used a doxycycline (DOX) inducible, transgenic mouse model for MLL-AF9-driven AML (iMLL-AF9 (57)). In this model, long-term HSC (LT-HSC, Lin^−CD34^−[…] c-Kit^+ CD150^+ CD48^−) derived AML blasts closely mirror an LSC-like phenotype resulting in a particularly aggressive, Cytarabine (Ara-C) resistant AML (57). […] Moreover, relapsed AML cells arising from rLSCs after treatment with Ara-C (100 mg/kg) at d+60 were even further enriched in Lin28b expression (FIG. 2B). Additionally, levels of both, let-7a and let-7b miRNAs, negatively correlated with increased Lin28b in rLSCs (FIG. 2C) (10, 39). Our findings are consistent with papers reporting that increased Lin28 correlates with disease recurrence post chemotherapy in colon and liver cancer stem cells (22, 58).
As Lin28 is overexpressed human AML, LSCs and rLSCs, we sought to determine if genetic Lin28b or pharmacologic Lin28/let-7 inhibition via LN1632 can abrogate proliferation of LSCs and thus overcome their therapy resistance. […]

[4] = system: MOLM-13 (no LIN28B); assay: Subcutaneous MOLM-13 AML xenograft; type: in vivo; conditions: MOLM-13 subQ in NSG mice, 100 mg/kg IP every other day
Procedure: Thus, we subcutaneously (subQ) implanted THP-1 (high LIN28B) cells or MOLM-13 (no LIN28B) into NSG mice and 12 d later (tumor size=40 mm^2) started administration of 1632 IP at 100 mg/kg every other day.

[5] = system: CD34+ AML pt. #13 cells; assay: CFC assay, AML pt #13 CD34+ cells vs healthy CD34+ BM cells; type: cell-based, human; conditions: AML pt #13 vs healthy donor CD34+ cells; 80-120 μM

Row | SMILES | Inhibition of LIN28B binding to pre-let-7a (FRET signal) [1] | IC50 [2] [µM] | Colony forming capacity cell numbers (CFCs) of LSCs [3] | Tumor growth [4] | Colony formation (CFC) [5]
1 | CC(=O)Nc1cccc(-c2ccc3ncc(C)n3n2)c1 [JGJ007, N-(3-(3-Methylimidazo[1,2-b]pyridazin-6-yl)phenyl)acetamide] | greater inhibition of the LIN28B/pre-let-7a2 binding than the original compound LN1632 |  |  |  | 
2 | CC(=O)N(C)c1cccc(-c2ccc3nnc(C)n3n2)c1 [LN1632] |  | 191 | significantly abrogated CFCs of LSCs | minimal effect on tumor growth; also recorded: significantly reduced tumor growth in THP-1 but not MOLM-13 | affects colony formation of CD34^+ AML pt. #13 cells significantly more than healthy CD34^+BM cells
